Measured values reported in ChEMBL document CHEMBL1201862, “PubChem BioAssay data set” (2004).
Calls of active or inactive are those of the source.

Columns and labels:
Format in all cases: functional
[1] = target: T1, Corticotropin-releasing factor receptor 2/Corticotropin-releasing factor-binding protein (Homo sapiens, UniProt P24387+Q13324); assay: activators of CRF receptor 2 with binding protein – uHTS hits, confirmation (AID 602473); conditions: read-out: EC50_Mean
T1 sequence (Q13324 whole entry): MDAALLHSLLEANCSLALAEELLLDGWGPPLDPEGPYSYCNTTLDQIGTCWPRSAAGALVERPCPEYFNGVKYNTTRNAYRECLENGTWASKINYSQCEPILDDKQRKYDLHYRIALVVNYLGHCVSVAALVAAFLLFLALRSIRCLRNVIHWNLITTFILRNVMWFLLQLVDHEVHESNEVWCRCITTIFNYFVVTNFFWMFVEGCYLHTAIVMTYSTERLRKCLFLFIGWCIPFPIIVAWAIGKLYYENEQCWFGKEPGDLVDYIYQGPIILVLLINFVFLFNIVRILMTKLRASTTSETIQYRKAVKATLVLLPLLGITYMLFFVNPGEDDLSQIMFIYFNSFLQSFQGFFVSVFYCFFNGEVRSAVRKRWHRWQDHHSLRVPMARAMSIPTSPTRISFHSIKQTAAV
T1 sequence (P24387 whole entry): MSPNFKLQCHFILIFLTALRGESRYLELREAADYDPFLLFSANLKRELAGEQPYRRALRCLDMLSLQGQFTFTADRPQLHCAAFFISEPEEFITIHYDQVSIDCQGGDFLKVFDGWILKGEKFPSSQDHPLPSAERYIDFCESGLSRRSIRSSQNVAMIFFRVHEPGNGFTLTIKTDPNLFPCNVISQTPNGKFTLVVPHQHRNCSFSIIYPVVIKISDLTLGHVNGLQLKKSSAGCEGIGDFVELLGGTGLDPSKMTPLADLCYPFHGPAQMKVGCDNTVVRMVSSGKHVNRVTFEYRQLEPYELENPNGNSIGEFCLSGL

[2] = target: T2, Replicative DNA helicase DnaB (Mycobacterium tuberculosis, UniProt P9WMR3); assay: DnaB intein splicing inhibitors, dose response, biochemical, cell-free fluorescence (AID 449749)
T2 sequence (P9WMR3 whole entry): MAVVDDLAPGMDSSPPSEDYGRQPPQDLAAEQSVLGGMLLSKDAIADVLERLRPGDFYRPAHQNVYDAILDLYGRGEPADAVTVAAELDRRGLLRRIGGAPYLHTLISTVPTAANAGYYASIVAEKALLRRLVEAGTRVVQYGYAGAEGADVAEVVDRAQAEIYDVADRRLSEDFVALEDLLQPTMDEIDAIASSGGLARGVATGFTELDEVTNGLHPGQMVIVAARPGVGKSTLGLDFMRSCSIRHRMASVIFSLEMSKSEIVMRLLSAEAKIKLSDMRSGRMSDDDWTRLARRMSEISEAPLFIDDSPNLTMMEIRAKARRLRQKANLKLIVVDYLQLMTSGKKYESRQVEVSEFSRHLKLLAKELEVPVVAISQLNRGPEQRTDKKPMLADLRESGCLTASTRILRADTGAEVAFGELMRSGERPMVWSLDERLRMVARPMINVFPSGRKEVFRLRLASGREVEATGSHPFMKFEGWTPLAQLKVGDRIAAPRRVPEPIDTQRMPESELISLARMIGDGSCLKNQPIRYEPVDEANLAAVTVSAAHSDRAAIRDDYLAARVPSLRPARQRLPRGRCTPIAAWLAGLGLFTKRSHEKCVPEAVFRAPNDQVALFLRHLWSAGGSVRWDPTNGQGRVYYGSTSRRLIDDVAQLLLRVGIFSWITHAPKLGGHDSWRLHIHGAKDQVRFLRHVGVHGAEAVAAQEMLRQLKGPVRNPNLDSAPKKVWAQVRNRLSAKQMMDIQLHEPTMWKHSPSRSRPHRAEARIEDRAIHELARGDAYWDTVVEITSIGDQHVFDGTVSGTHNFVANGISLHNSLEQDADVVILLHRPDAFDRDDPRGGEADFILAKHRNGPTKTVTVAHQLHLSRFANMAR

Protein RecA = target: T3, Protein RecA (Mycobacterium tuberculosis, UniProt P9WHJ3); assay: Fluorescence Cell-Free Homogeneous Dose Retest to Identify Inhibitors of RecA-Intein Splicing Activity. [Related pubchem assays (depositor defined):AID2097, AID2223, AID489010, AID492950]
T3 sequence (P9WHJ3 whole entry): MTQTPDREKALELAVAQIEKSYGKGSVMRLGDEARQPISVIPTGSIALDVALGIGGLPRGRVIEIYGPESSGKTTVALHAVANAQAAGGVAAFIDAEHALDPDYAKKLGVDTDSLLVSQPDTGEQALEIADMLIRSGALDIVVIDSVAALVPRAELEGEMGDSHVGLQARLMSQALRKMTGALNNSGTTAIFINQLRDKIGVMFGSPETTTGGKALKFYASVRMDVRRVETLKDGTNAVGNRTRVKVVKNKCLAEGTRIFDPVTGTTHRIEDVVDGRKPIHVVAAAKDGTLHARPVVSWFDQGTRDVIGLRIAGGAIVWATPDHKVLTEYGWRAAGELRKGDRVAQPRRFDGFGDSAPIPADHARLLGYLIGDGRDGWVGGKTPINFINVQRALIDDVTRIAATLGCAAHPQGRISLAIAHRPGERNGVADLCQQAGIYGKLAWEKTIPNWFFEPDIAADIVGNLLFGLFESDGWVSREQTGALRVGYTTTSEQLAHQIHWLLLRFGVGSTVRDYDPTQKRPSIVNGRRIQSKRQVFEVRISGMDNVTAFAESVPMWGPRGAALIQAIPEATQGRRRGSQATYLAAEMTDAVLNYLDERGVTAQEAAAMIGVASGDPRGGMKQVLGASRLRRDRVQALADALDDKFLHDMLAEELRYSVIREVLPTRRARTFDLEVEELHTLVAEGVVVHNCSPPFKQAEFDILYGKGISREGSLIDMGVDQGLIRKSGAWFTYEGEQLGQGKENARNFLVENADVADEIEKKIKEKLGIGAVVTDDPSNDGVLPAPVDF

[3] = target: T1, Corticotropin-releasing factor receptor 2/Corticotropin-releasing factor-binding protein; assay: Dose Response confirmation of uHTS hits for small molecule antagonists of the CRF-binding protein and CRF-R2 receptor complex.; conditions: read-out: IC50_Mean
[4] = viability of uninfected HEp-2 cells – cell-based, HTS, cytotoxicity control for RSV inhibitor project, dose response (AID 2410); conditions: human respiratory syncytial virus

Row | Structure (SMILES) | EC50 [1] | IC50 [3] | other results
1 | CCn1cc(C(=O)NCCCN(CC(C)C)CC(C)C)c(=O)c2cc(S(=O)(=O)N(C)C3CCCCC3)ccc21 | 7.06 µM (active) | – | –
2 | O=C1C([O-])=C([n+]2ccccc2)C(=O)c2ccccc21 | – | – | AC50 [2]: 2.79 µM (active); EC50 (Protein RecA): 3.52 µM (active)
3 | CC(C)(CSc1ncccn1)NS(=O)(=O)c1ccccc1 | > 53 µM (inactive) | > 47.1 µM (inactive) | –
4 | CCOc1cc2[nH]c(=O)n(Cc3ccccc3)c(=O)c2cc1OCC | > 53 µM (inactive) | > 47.1 µM (inactive) | –
5 | Cc1cc(C)cc(NC(=O)c2ccc(N3C(=O)C4CCCCC4C3=O)cc2)c1 (stereo not drawn) | > 53 µM (inactive) | > 47.1 µM (inactive) | –
6 | Nc1ccccc1SC1CC(=O)N(c2ccc3c(c2)OCO3)C1=O (stereo not drawn) | > 53 µM (inactive) | > 47.1 µM (inactive) | –
7 | Cc1c(C(=O)Nc2cccc([N+](=O)[O-])c2)sc2ncn(CC(=O)N3CCOCC3)c(=O)c12 | > 53 µM (inactive) | > 47.1 µM (inactive) | –
8 | Cc1c(C(c2ccc(N(C)C)cc2)c2c(C)n(C)n(-c3ccccc3)c2=O)c(=O)n(-c2ccccc2)n1C | > 53 µM (inactive) | > 47.1 µM (inactive) | –
9 | Cc1cc(/C=C(/C#N)c2nc3ccccc3[nH]2)c(C)n1-c1cccc([N+](=O)[O-])c1 | – | – | CC50 [4]: 22.6 µM (active)
10 | CCN1N=C(c2cc(Cl)sc2Cl)CSC1=O | – | – | CC50 [4]: > 50 µM (active)
11 | COc1ccccc1NS(=O)(=O)c1cc(C(=O)N2CCCC2)ccc1F | > 53 µM (inactive) | > 47.1 µM (inactive) | –
12 | N#C/C(=C\c1cccc(O)c1)c1nc2ccccc2o1 | – | – | AC50 [2]: 53.1 µM (active); EC50 (Protein RecA): 9.27 µM (active)
13 | CC(C)Cc1ccc(-c2cc(O)[nH]n2)cc1 | – | – | AC50 [2]: 1.79 µM (active); EC50 (Protein RecA): 0.664 µM (active)
14 | CCn1c(SCC(=O)N2CCN(c3cccc(Cl)c3)CC2)nc2ccccc2c1=O | – | – | CC50 [4]: 47.5 µM (active)
15 | Cc1ccc2c(cnn2C(=O)CCC(=O)N2CCCCC2)c1 | > 53 µM (inactive) | > 47.1 µM (inactive) | –
16 | O=C1C(Cl)=C(NCC2CCCO2)C(=O)N1c1ccccc1 (stereo not drawn) | – | – | AC50 [2]: 18.8 µM (active); EC50 (Protein RecA): 6.58 µM (active)
17 | CSc1ccccc1NC(=O)COC(=O)c1c[nH]c(=O)[nH]c1=O | > 53 µM (inactive) | – | –
18 | O=C(COc1cccc(Cl)c1)Nc1ccc(N2CCOCC2)cc1 | > 53 µM (inactive) | > 47.1 µM (inactive) | –
19 | Cc1cc2c3c(c1)C(C)CC(C)(C)N3C(=O)C2=C(C#N)C#N (stereo not drawn) | – | – | AC50 [2]: 23.8 µM (active); EC50 (Protein RecA): 2.22 µM (active)
20 | Cc1cc(O)c(C(C)C)cc1/N=C\c1ccccc1O | – | – | AC50 [2]: 4.29 µM (active); EC50 (Protein RecA): 8.89 µM (active)

Row | Structure (SMILES) | EC50 [1] | IC50 [3] | other results
21 | CC1=C(C#N)C(=O)NC(C)(C)C1 | > 53 µM (inactive) | > 47.1 µM (inactive) | –
22 | CS/C(=C\[N+](=O)[O-])Nc1ccc(OC(F)(F)F)cc1 | – | – | AC50 [2]: 14.6 µM (active); EC50 (Protein RecA): 7.21 µM (active)
23 | CCOc1ccc(C2C(C#N)=C(N)Oc3[nH]nc(C)c32)cc1OC(=O)C1CC1 (stereo not drawn) | – | – | AC50 [2]: 17.7 µM (active); EC50 (Protein RecA): 9.82 µM (active)
24 | CCCC(=O)Nc1ccc2c(c1)Cc1ccccc1-2 | – | – | CC50 [4]: > 50 µM (active)
25 | COC(=O)C(C)N(C(=O)c1cccc2ccccc12)c1c(C)cccc1C (stereo not drawn) | – | – | CC50 [4]: 19.9 µM (active)
26 | CN(CCc1cnn(C)c1)C(=O)C1CCC(=O)N(CC2CCCCC2)C1 (stereo not drawn) | – | – | AC50 [2]: > 380 µM (inactive); EC50 (Protein RecA): > 380 µM (inactive)
27 | O=C(CCl)N(c1ccccc1)c1ccccc1 | – | – | AC50 [2]: 17.1 µM (active); EC50 (Protein RecA): 0.484 µM (active)
28 | CC(=O)c1cc(F)c(N2CCN(C(=O)C(C)(C)C)CC2)cc1C | > 53 µM (inactive) | > 47.1 µM (inactive) | –
29 | CCC(=O)Nc1cccc(-c2csc(-c3ccccc3)n2)c1 | – | – | CC50 [4]: 26.4 µM (active)
30 | COc1ccc(-c2csc(NC(=O)CS(=O)(=O)c3ccccc3)n2)cc1 | – | – | CC50 [4]: 20.4 µM (active)
31 | Cc1onc(-c2ccccc2)c1CNC(=O)CN1C(=O)c2ccccc2C1=O | > 53 µM (inactive) | > 47.1 µM (inactive) | –
32 | CSc1ccccc1C(=O)N1CCN(S(=O)(=O)c2sc(C(=O)O)c(C)c2C(=O)O)CC1 | > 53 µM (inactive) | > 47.1 µM (inactive) | –
33 | O=C(CCN1CCCC1=O)NC1CCCc2c1cnn2-c1ccccc1F (stereo not drawn) | > 53 µM (inactive) | > 47.1 µM (inactive) | –
34 | CC12CC3CC(C)(C1)CC(C(=O)NNC(=O)c1ccncc1)(C3)C2 | > 53 µM (inactive) | > 47.1 µM (inactive) | –
35 | COc1ccc(N(CC(=O)N/N=C/c2ccc3c(c2)OCO3)S(=O)(=O)c2ccc(NC(C)=O)cc2)cc1 | > 53 µM (inactive) | > 47.1 µM (inactive) | –
36 | Cc1occc1C(=O)N/N=C/C(Br)=C/c1ccccc1 | – | – | CC50 [4]: 32 µM (active)
37 | COCCN1CCC(CO)C1 (stereo not drawn) | > 53 µM (inactive) | > 47.1 µM (inactive) | –
38 | Nc1nonc1-n1nnc(C(=O)N/N=C/c2ccccc2)c1CSc1ccc(Cl)cc1 | > 53 µM (inactive) | – | –
39 | Cc1cc(=O)n(-c2ccc(C(=O)O)cc2)[nH]1 | – | – | AC50 [2]: 1.9 µM (active); EC50 (Protein RecA): 1.92 µM (active)
40 | C/C(=N\NC1=NC(=O)C(CC(=O)Nc2ccc(C)c(Cl)c2)S1)C(C)(C)C (stereo not drawn) | – | – | CC50 [4]: 13.8 µM (active)
